Values after ≈ are worked out from the molar mass of the structure shown. Square brackets hold non-standard residues; d marks the D form. Peptide text beside a SMILES is read from it. Gly(1-adamantyl) = N[C@H](C(=O)O)C12CC3CC(CC(C3)C1)C2; Orn = NCCC[C@H](N)C(=O)O
Legend:
Staphylococcus aureus [1] = test: Antibacterial activity against PVL-deficient and non-typable methicillin-resistant Staphylococcus aureus N133-T034 after 24 hrs by broth dilution method; format: functional; conditions: N133-T034, 24 h
Bacillus cereus = test: Antibacterial activity against Bacillus cereus ATCC 11778 after 24 hrs by broth dilution method; format: functional; conditions: ATCC 11778, 24 h
[2] = Toxicity in human erythrocytes assessed as concentration required to achieve 100% hemolysis after 4 hrs; format: cell-based; conditions: erythrocyte
Pseudomonas aeruginosa = test: Antibacterial activity against Pseudomonas aeruginosa ATCC 27853 after 24 hrs by broth dilution method; format: functional; conditions: ATCC 27853, 24 h
Staphylococcus aureus [3] = test: Antibacterial activity against PVL-positive and non-typable methicillin-resistant Staphylococcus aureus USA300-1110301146 after 24 hrs by broth dilution method; format: functional; conditions: USA300-1110301146, 24 h
Escherichia coli = test: Antibacterial activity against Escherichia coli ATCC 25922 after 24 hrs by broth dilution method; format: functional; conditions: ATCC 25922, 24 h
[4] = system: Staphylococcus epidermidis; test: Antibacterial activity against Staphylococcus epidermidis ATCC 12228 after 24 hrs by broth dilution method; format: functional; conditions: ATCC 12228, 24 h
Staphylococcus aureus [5] = test: Antibacterial activity against PVL-positive and non-typable methicillin-resistant Staphylococcus aureus 1110301981H-T034 after 24 hrs by broth dilution method; format: functional
Staphylococcus aureus [6] = test: Antibacterial activity against PVL-deficient and non-typable methicillin-resistant Staphylococcus aureus N229-T034 after 24 hrs by broth dilution method; format: functional; conditions: N229-T034, 24 h
Enterococcus faecalis = test: Antibacterial activity against Enterococcus faecalis ATCC 29212 after 24 hrs by broth dilution method; format: functional; conditions: ATCC 29212, 24 h
Staphylococcus aureus [7] = test: Antibacterial activity against Staphylococcus aureus ATCC 29213 after 24 hrs by broth dilution method; format: functional; conditions: ATCC 29213, 24 h

SMILES	MIC (Staphylococcus aureus [1]) [µg/mL]	MIC (Bacillus cereus) [µg/mL]	Activity [2] [µM]	MIC (Pseudomonas aeruginosa) [µg/mL]	MIC (Staphylococcus aureus [3]) [µg/mL]	MIC (Escherichia coli) [µg/mL]	MIC [4] [µg/mL]	MIC (Staphylococcus aureus [5]) [µg/mL]	MIC (Staphylococcus aureus [6]) [µg/mL]	MIC (Enterococcus faecalis) [µg/mL]	MIC (Staphylococcus aureus [7]) [µg/mL]
NCCC[C@@H]1NC(=O)[C@H](C23CC4CC(CC(C4)C2)C3)NC(=O)[C@H](CCCN)NC(=O)[C@@H]2CCCN2C(=O)[C@@H](Cc2ccccc2)NC(=O)[C@H](CCCN)NC(=O)[C@H](C23CC4CC(CC(C4)C2)C3)NC(=O)[C@H](CCCN)NC(=O)[C@@H]2CCCN2C(=O)[C@@H](Cc2ccccc2)NC1=O (cyclo([Orn][dF]P[Orn][Gly(1-adamantyl)][Orn][dF]P[Orn][Gly(1-adamantyl)]))	8 (≈ 6.03 µM)	8 (≈ 6.03 µM)	500	16 (≈ 12.1 µM)	8 (≈ 6.03 µM)	8 (≈ 6.03 µM)	4 (≈ 3.01 µM)	8 (≈ 6.03 µM)	8 (≈ 6.03 µM)	8 (≈ 6.03 µM)	8 (≈ 6.03 µM)
CC(C)C[C@@H]1NC(=O)[C@H](CCCN)NC(=O)[C@@H]2CCCN2C(=O)[C@@H](Cc2ccccc2)NC(=O)[C@H](CCCN)NC(=O)[C@H](CC(C)(C)C)NC(=O)[C@H](CCCN)NC(=O)[C@@H]2CCCN2C(=O)[C@@H](Cc2ccccc2)NC(=O)[C@H](CCCN)NC1=O	> 64	> 64	> 500	> 64	> 64	> 64	16 (≈ 13.5 µM)	> 64	> 64	> 64	> 64
CC(C)[C@@H]1NC(=O)[C@H](CCCN)NC(=O)[C@@H]2CCCN2C(=O)[C@@H](Cc2ccccc2)NC(=O)[C@H](CCCN)NC(=O)[C@H](C(C)(C)C)NC(=O)[C@H](CCCN)NC(=O)[C@@H]2CCCN2C(=O)[C@@H](Cc2ccccc2)NC(=O)[C@H](CCCN)NC1=O	> 64	> 64	> 500	> 64	> 64	> 64	64 (≈ 55.3 µM)	> 64	> 64	> 64	> 64
CCCCCCCCCC[C@@H]1NC(=O)[C@H](CCCN)NC(=O)[C@@H]2CCCN2C(=O)[C@@H](Cc2ccccc2)NC(=O)[C@H](CCCN)NC(=O)[C@H](CCCCCCCCCC)NC(=O)[C@H](CCCN)NC(=O)[C@@H]2CCCN2C(=O)[C@@H](Cc2ccccc2)NC(=O)[C@H](CCCN)NC1=O	64 (≈ 47.8 µM)	8 (≈ 5.97 µM)	62.5	64 (≈ 47.8 µM)	64 (≈ 47.8 µM)	64 (≈ 47.8 µM)	4 (≈ 2.99 µM)	64 (≈ 47.8 µM)	64 (≈ 47.8 µM)	32 (≈ 23.9 µM)	64 (≈ 47.8 µM)
CC(C)(C)[C@@H]1NC(=O)[C@H](CCCN)NC(=O)[C@@H]2CCCN2C(=O)[C@@H](Cc2ccccc2)NC(=O)[C@H](CCCN)NC(=O)[C@H](C(C)(C)C)NC(=O)[C@H](CCCN)NC(=O)[C@@H]2CCCN2C(=O)[C@@H](Cc2ccccc2)NC(=O)[C@H](CCCN)NC1=O	> 64	> 64	> 500	> 64	> 64	> 64	64 (≈ 54.6 µM)	> 64	> 64	> 64	> 64
CC(C)[C@@H]1NC(=O)[C@H](CCCN)NC(=O)[C@@H]2CCCN2C(=O)[C@@H](Cc2ccccc2)NC(=O)[C@H](CCCN)NC(=O)[C@H](C(C)C)NC(=O)[C@H](CCCN)NC(=O)[C@@H]2CCCN2C(=O)[C@@H](Cc2ccccc2)NC(=O)[C@H](CCCN)NC1=O	> 64	> 64	> 500	> 64	> 64	> 64	64 (≈ 56 µM)	> 64	> 64	> 64	> 64
CC(C)(C)C[C@@H]1NC(=O)[C@H](CCCN)NC(=O)[C@@H]2CCCN2C(=O)[C@@H](Cc2ccccc2)NC(=O)[C@H](CCCN)NC(=O)[C@H](CC23CC4CC(CC(C4)C2)C3)NC(=O)[C@H](CCCN)NC(=O)[C@@H]2CCCN2C(=O)[C@@H](Cc2ccccc2)NC(=O)[C@H](CCCN)NC1=O	16 (≈ 12.5 µM)	4 (≈ 3.13 µM)	500	16 (≈ 12.5 µM)	16 (≈ 12.5 µM)	16 (≈ 12.5 µM)	4 (≈ 3.13 µM)	16 (≈ 12.5 µM)	16 (≈ 12.5 µM)	32 (≈ 25 µM)	16 (≈ 12.5 µM)
CC(C)C[C@@H]1NC(=O)[C@H](CCCN)NC(=O)[C@@H]2CCCN2C(=O)[C@@H](Cc2ccccc2)NC(=O)[C@H](CCCN)NC(=O)[C@H](CC23CC4CC(CC(C4)C2)C3)NC(=O)[C@H](CCCN)NC(=O)[C@@H]2CCCN2C(=O)[C@@H](Cc2ccccc2)NC(=O)[C@H](CCCN)NC1=O	32 (≈ 25.3 µM)	16 (≈ 12.7 µM)	> 500	16 (≈ 12.7 µM)	32 (≈ 25.3 µM)	64 (≈ 50.6 µM)	4 (≈ 3.17 µM)	64 (≈ 50.6 µM)	32 (≈ 25.3 µM)	64 (≈ 50.6 µM)	64 (≈ 50.6 µM)
CC(C)(C)[C@@H]1NC(=O)[C@H](CCCN)NC(=O)[C@@H]2CCCN2C(=O)[C@@H](Cc2ccccc2)NC(=O)[C@H](CCCN)NC(=O)[C@H](C23CC4CC(CC(C4)C2)C3)NC(=O)[C@H](CCCN)NC(=O)[C@@H]2CCCN2C(=O)[C@@H](Cc2ccccc2)NC(=O)[C@H](CCCN)NC1=O	64 (≈ 51.2 µM)	32 (≈ 25.6 µM)	> 500	32 (≈ 25.6 µM)	64 (≈ 51.2 µM)	32 (≈ 25.6 µM)	4 (≈ 3.2 µM)	64 (≈ 51.2 µM)	64 (≈ 51.2 µM)	> 64	64 (≈ 51.2 µM)
NCCC[C@@H]1NC(=O)[C@H](CC23CC4CC(CC(C4)C2)C3)NC(=O)[C@H](CCCN)NC(=O)[C@@H]2CCCN2C(=O)[C@@H](Cc2ccccc2)NC(=O)[C@H](CCCN)NC(=O)[C@H](CC23CC4CC(CC(C4)C2)C3)NC(=O)[C@H](CCCN)NC(=O)[C@@H]2CCCN2C(=O)[C@@H](Cc2ccccc2)NC1=O	8 (≈ 5.9 µM)	8 (≈ 5.9 µM)	62.5	16 (≈ 11.8 µM)	8 (≈ 5.9 µM)	8 (≈ 5.9 µM)	4 (≈ 2.95 µM)	8 (≈ 5.9 µM)	8 (≈ 5.9 µM)	8 (≈ 5.9 µM)	8 (≈ 5.9 µM)
CC(C)[C@@H]1NC(=O)[C@H](CCCN)NC(=O)[C@@H]2CCCN2C(=O)[C@@H](Cc2ccccc2)NC(=O)[C@H](CCCN)NC(=O)[C@H](C23CC4CC(CC(C4)C2)C3)NC(=O)[C@H](CCCN)NC(=O)[C@@H]2CCCN2C(=O)[C@@H](Cc2ccccc2)NC(=O)[C@H](CCCN)NC1=O	> 64	64 (≈ 51.8 µM)	> 500	64 (≈ 51.8 µM)	> 64	> 64	16 (≈ 12.9 µM)	> 64	> 64	> 64	64 (≈ 51.8 µM)
CC(C)C[C@@H]1NC(=O)[C@H](CCCN)NC(=O)[C@@H]2CCCN2C(=O)[C@@H](Cc2ccccc2)NC(=O)[C@H](CCCN)NC(=O)[C@H](CC(C)C)NC(=O)[C@H](CCCN)NC(=O)[C@@H]2CCCN2C(=O)[C@@H](Cc2ccccc2)NC(=O)[C@H](CCCN)NC1=O		> 64	> 500	> 64		> 64	64 (≈ 54.6 µM)			> 64	> 64
